Data on three molecules can be found in publication PMC4713719 (European Journal of Clinical Pharmacology, 2015).

A word on the half-life: it is how long it takes for the measured level to halve.

The subject of data set [1] is patients with multiple myeloma. The settings on record: cited from earlier work.
The test system of data set [2] is patients with relapsed and refractory multiple myeloma. Briefly: Grade 3 or 4 adverse events and MTD in the B2207 trial. The data set is classed as in vivo, human. From the text: The two combination studies, B2207 and PANORAMA-1, reported efficacy data in patients with relapsed and refractory multiple myeloma. In the current analysis, exposure–efficacy relationship was explored using the efficacy data (ORR based on IMWG criteria) from the B2207 trial.

The next data set deals with CYP3A. The following applies: strong CYP3A inhibitor, cancer patients; cited from earlier work.
The conditions of data set [3]: cited from earlier work.
Details of data set [4]: method as in unpublished data. The following applies: 20 mg panobinostat + 25 mg lenalidomide + 40 mg dexamethasone (day 1 through day 4); ref unpublished data; cited from earlier work.
The conditions of data set [5]: patients with solid tumors; cited from earlier work.
A further data set relates to CYP2D6. The following applies: sensitive CYP2D6 substrate, cancer patients; cited from earlier work.
The next data set deals with patients. The arrangement: method as in historical single-agent studies. The following applies: 20 mg PAN (tiw qw) single agent, pooled, N = 309, ref historical single-agent studies, cited from earlier work.
For data set [6], the system named is patients with advanced hematologic malignancies. The following applies: panobinostat alone; cited from earlier work.
A short description of data set [7]: Panobinostat plasma PK in the B2207 phase 1b trial (LC-MS/MS, non-compartmental). The settings on record: B2207, PAN + BTZ + Dex vs historical single-agent trials. As to the method: In the dose escalation part, PK samples were collected on cycle 1, day 8, and cycle 1, day 15 at pre-dose, and various intervals post-dose up to 48 h.
The conditions of data set [8]: 20 mg PAN single agent (tiw qw), multiple oral dose, N = 32, cited from earlier work.
Data set [9] relates to class I, II, and IV histone deacetylases. The following applies: cited from earlier work.
A short description of data set [10]: Panobinostat plasma PK in the PANORAMA-1 phase 3 trial (Japan subset). The following applies: PANORAMA-1 cycle 1 day 8, PAN + BTZ + Dex, N = 12. It counts as in vivo, human. The procedure: Each phase was of 24 weeks duration with treatment phase 1 consisting of eight, 3-week cycles and treatment phase 2 consisting of four, 6-week cycles.
In this study, plasma samples for panobinostat and bortezomib were collected in a subset of Asian patients. Blood samples were taken at scheduled time points (cycle 1, day 1, and cycle 1 day 8 at pre-dose and at 0.5, 1, 2, 3, 4, 8, 24, and 48 h post-dose) for PK analysis.

The conditions of data set [11]: cited from earlier work. This is another data set of the same source.
The conditions of data set [12]: read-out: Projected Cmax; 20 mg oral dose used in the B2207 study.
[13] abbreviates: human, plasma, oral, geometric mean (% CV).

Each structure is given as a SMILES string. Where two headings read alike, the source gives them in different places. Where only a bound is given, the exact number is not on record here.

For the molecule `CC(C)C[C@H](NC(=O)[C@H](Cc1ccccc1)NC(=O)c1cnccn1)B(O)O` [bortezomib], the “Grade ≥3 diarrhea” value in data set [1] (1.3 mg/m^2 IV bortezomib) is 5%; in data set [1] (1.3 mg/m^2 SC bortezomib), 2%. Besides, the MTD in data set [2] (B2207, twice-weekly (biw), in combination with panobinostat) is 1.3 mg/m^2.

For the molecule `Cc1[nH]c2ccccc2c1CCNCc1ccc(/C=C/C(=O)NO)cc1` [panobinostat, Panobinostat], the “Increase of panobinostat systemic exposure by ketoconazole” value in the data set on CYP3A is given as 80%. In data set [3], the “Fraction of the radiolabeled dose recovered in the feces” value is listed as 44 to 77%; the “Fraction of the radiolabeled dose recovered in the urine” value is on record as 29 to 51%; the “Number of metabolites formed” value is reported as “over 70”; the “Unchanged panobinostat in the feces, % of the administered dose” value was below 3.5%. In addition, the “Effective half-life (T1/2)” value in [3] (single agent, based on the rate of accumulation) was “approximately 16 h”. In addition, in [3] (single agent, oral administration), the “Median Tmax” value is listed as “about 2 h”. In addition, the Accumulation entry in data set [3] (single-agent trial) was “approximately 1.1 fold”. Further, the “Dose linearity of pharmacokinetics” value in [3] (tested dose range between 10 and 30 mg) is “approximately linear”. In addition, the Steady state reached entry in data set [3] (thrice-weekly (tiw) dosing schedule) was “after the third dose”. Besides, the “Decrease in PAN exposure compared to historical single-agent data” value in data set [4] is given as “approximately 60%”. Besides, the “Effect of mild, moderate, or severe renal impairment on plasma exposure” value in data set [5] is “did not alter the plasma exposure”. Besides, the “Increase of dextromethorphan systemic exposure by panobinostat” value with CYP2D6 was 60%. Moreover, in the data set on patients, the “Grade 3 or 4 anemia” value is 29 (9) %, the “Grade 3 or 4 diarrhea” value was “about 3%”, the “Grade 3 or 4 fatigue” value is reported as 13 (4) % and the “Grade 3 or 4 nausea” value is recorded as 6 (2) %. For the same molecule, in the data set with patients, the “Grade 3 or 4 neutropenia” value is listed as 42 (14) %, the “Grade 3 or 4 thrombocytopenia” value was “about 21%” and the “Grade 3 or 4 vomiting” value is listed as 4 (1) %. Also, in the data set with patients (listed as PAN), the “Grade 3 or 4 diarrhea” value is 10 (3) % and the “Grade 3 or 4 thrombocytopenia” value was 66 (21) %. The “Grade ≥3 thrombocytopenia” value in data set [6] is recorded as 55%. For the same molecule, the “Lower panobinostat exposure at MTD in combination vs single-agent trials” value in data set [7] is recorded as around 50%. In addition, in data set [8] (geometric mean (% CV)), the AUC0-24 was 139 (71) ng h/mL, the Cmax is given as 21.6 (83) ng/mL and the T1/2 was 16.9 (33) h. For the same molecule, the Tmax in data set [8] (median (range)) is on record as 1 (0.5–8) h. In addition, the MTD in data set [2] (B2207, tiw, in combination with bortezomib) amounted to 20 mg. Besides, the “Activity against histone deacetylases” value in data set [9] is reported as “low nanomolar activity”. The AUC0-24 in data set [10] (geometric mean (% CV)) is recorded as 95.2 (28.4) ng h/mL. Further, in data set [10] (setting [13]), the Cmax came to 0.0153 µg/mL and the half-life is 16.7 h. Further, the AUC(0-t) in [10] (human, plasma, oral, geometric mean (% CV), read-out: AUC0-24) is 0.095 µg·h/mL. The Vd/F in data set [10] (human, plasma, oral, geometric mean (% CV), read-out: Vz/F) was 3550 L. The Tmax in [10] (human, plasma, oral, median (range)) is 2.02 h. Also, the “Effect of fed or fasting state on oral bioavailability” value in data set [11] is on record as “marginally affected”.

As for `C[C@@H]1C[C@H]2[C@@H]3CCC4=CC(=O)C=C[C@]4(C)[C@@]3(F)[C@@H](O)C[C@]2(C)[C@@]1(O)C(=O)CO` [dexamethasone], in data set [12], the Cmax is around 0.03 µM.
